{
  "source": "patent US5916906A",
  "about": "“Compositions comprising nicotinylalanine and an inhibitor of glycine conjugation or vitamin B6” (priority 1997, dated 1999)",
  "format_in_all_cases": "in vivo, C57BL/6 mice",
  "key": {"[1]": {"test_system": "LP-BM5 MuLV Retrovirus", "assay": "MAIDS model, interim sacrifices: body weight, disease score, spleen weight", "details": "treatment from day 1: NAL 400 mg/kg i.p., ASA 20 mg/kg i.p., AZT 1 mg/ml in drink water; for Body Wt. / Spleen Wt.: individual mouse; for Disease Score: scores 0 through +4, individual mouse", "procedure": "(§1) This study was designed to determine whether nicotinylalanine (NAL) alone or in combination with acetylsalicylic acid (ASA) will prevent or alter the course of murine retroviral-induced immunodeficiency disease, MAIDS, in C57BL/6 female mice. The LP-BM5 MuLV virus used for these studies was prepared from chronically infected SC-1 cells (ATCC Cat. No. CRL-1404), as described by Yetter R. A. et al., J. Exp. Med., 168, 623-635, 1988. […] The MAIDS model is well characterized and reproducible in the laboratory, as described by Mosier D. E. et al., J. Exp. Med. 161, 766-784, 1985.\n(§2) Measures of disease progression followed the methods developed by Eiseman et al., 1991 (Ibid). Disease scores 0 through +4 are based upon body weight gain and palpable alterations in the size of lymph nodes and spleen. Severity of disease is scored as follows: 0.5, increased body weight and variably detected increase in size of any one lymph node or spleen; +1, clearly detectable increase in the size of a lymph node and spleen; +2, readily detectable (greater than 0.3 cm in diameter) increased size in more than one lymph node and, in particular, enlargement of subcervical, brachial or axillary nodes; +3, increased size of all palpable nodes and palpable splenomegaly (≥0.3 grams); +4, advanced disease with extensive splenomegaly (>1.0 grams) and lymphadenopathy.\n(§3) Specific pathogen free, female C57BL/6 mice (5 weeks of age) were purchased from Charles River Breeding Laboratories. All mice were allowed one week to acclimate to housing facilities prior to randomization for study. Animals were marked for identification and placed in microisolator cages with identifying cards (5 mice/cage), where autoclaved food and water were provided ad libitum.\n(§4) NAL and ASA were formulated under sterile conditions according to preformulation methods outlined in Remington's Pharmaceutical Sciences Handbook, 18th Edition, 1990, ibid). NAL and ASA were dissolved in sterile phosphate-buffered normal saline solution (i.e., vehicle; Biofluids Inc., Lot 413054), adjusted to between pH 7.2 to 7.4 with […], sterilized by filtration through 0.2 μm bottle-type filters, and dispersed into sterile glass vials, sealed and capped (Wheaton Inc.).\n(§5) Except for Group 6 (which began treatment 2 weeks after virus inoculation),test drug injections began 1 day after virus infection and continued every day except weekends (i.e., 5 times per week).\nDisease progression was monitored by measuring serum IgM levels by ELISA on all animals at monthly intervals during the course of disease. Three mice per group were randomly selected and sacrificed at monthly intervals (end of month one through four) of the study. Disease scores for each animal were recorded weekly based upon palpation of lymph nodes and spleen. Complete gross necropsies were performed on these euthanized animals and the ratio of recorded spleen to body weights was an additional indicator of diseases progression. […] Infection was quantified by ecotropic virus XC plaque assays of spleens removed from the interim sacrificed animals."}, "[2]": {"test_system": "LP-BM5 MuLV Retrovirus", "assay": "MAIDS model: disease stage score, attainment of disease score 4 (Kaplan-Meier) and survival up to 28 weeks", "source_text": "Each value represents the mean and one standard standard deviation for groups of surviving mice (at least 4 mice per group) at termination of the study, following 28 weeks post-inoculation by LP-BM5 virus.\n(§6) Each group consisted of 8 mice, except for the virus-negative control group which consisted of 6 mice.\nas §6, §1, §2, §3, §4, §5"}, "[3]": {"test_system": "LP-BM5 Retrovirus", "assay": "Ecotropic virus XC plaque assay on spleen cells of treated LP-BM5 infected mice", "source_text": "FIG. 4A and 4B: Mean Number of Virus Particles as Determined from Plaques per Million Spleen Cells from Serially Sacrificed Mice at Monthly Intervals After Inoculation with LP-BM5 Retrovirus. […] Each ml of the virus pool contained 3.66 log PFU ecotropic virus as determined by XC Plaque Assay. Treatment in all groups began one day after virus inoculation, except for the NAL 400 Delay Group which began treatment two weeks after virus inoculation. Groups and treatments are as follows:\nFIG. 4B: LP-BM5+PBS=as described above; NAL 400=virus positive, plus daily (M-F) i.p. injections of nicotinylalanine (400 mg/kg) only; NAL 400 delay=nicotinylalanine (400 mg/kg) only, injected i.p. daily (M-F) beginning two weeks after virus inoculation.\nEcotropic virus titers were determined using the XC plaque assay (Yetter R. A. et al., J. Exp. Med., 168, 623-635, 1988) and were performed on spleen cells cultured from all serially killed mice at the interim sacrifices as shown in Tables 2-A & 2-B). Spleens were weighed and cells were extruded with sterile media (RPMI 1640, with gentamycin and 10% fetal calf serum). Serial 10-fold dilutions were made and one ml of each dilution was overlayered onto a monolayer of SC-1 cells treated with 4 μg/ml polybrene. After 24 hours, the media was removed and washed and the SC-1 cells were fed with fresh media. When the monolayer was confluent, the plates were irradiated with UV light at 60 ergs/mm^2 /sec and overlayered with XC cells. When the XC cell layer was confluent, the plates were fixed with methanol and stained with Giemsa Stain. Plaques were counted on an Artek colony counter and confirmed by phase contrast microscopy. Values presented in FIG. 4A represent the mean of adjusted samples at three dilutions expressed as plaques per million spleen cells. Mean and standard deviations corresponding to each of the data points in FIGS. 4A and 4B are derived from three mice serially killed at interim sacrifice times."}, "[4]": {"assay": "Plasma nicotinamide levels in LP-BM5 infected mice (HPLC)", "details": "NAL 400 mg/kg, ASA 20 mg/kg; for Ratio of plasma nicotinamide mean to placebo (PBS Control, Group 1): AZT as in Table 4; for Mean Plasma Nicotinamide Level: virus-positive, ~24 h after last treatment, AZT printed 1 mg/kg, mean ± SD", "protocol": "Mice were sacrificed on Tuesdays at monthly intervals after\ninoculation, approximately 24 hours after their last treatment.\nAt time of sacrifice, blood was collected by cardiac puncture and stored\nResults are expressed as mean concentrations ± standard deviation in"}},
  "note": "“And” between values parts separate entries of the source, which are not always exact repeats. Equal values may be shown once.",
  "data": [
    {"molecule": "Cc1cn([C@H]2C[C@H](N=[N+]=[N-])[C@@H](CO)O2)c(=O)[nH]c1=O", "note": "[AZT, 3'azido-3'deoxythymidine, reference compound]", "values": [
      {"measurement": "Body Wt.", "setting": "[1]; 1 month postinoculation", "value": "21.1 Grams and 20.9 Grams and 19.6 Grams"},
      {"measurement": "Spleen Wt.", "setting": "[1]; 1 month postinoculation", "value": "0.097 Grams and 0.108 Grams and 0.096 Grams"},
      {"measurement": "Disease Score", "setting": "[1]; 1 month postinoculation", "value": "0 and 0.5"},
      {"measurement": "Body Wt.", "setting": "[1]; 2 months postinoculation", "value": "20.9 Grams and 20.0 Grams and 22.6 Grams"},
      {"measurement": "Spleen Wt.", "setting": "[1]; 2 months postinoculation", "value": "0.090 Grams and 0.104 Grams and 0.086 Grams"},
      {"measurement": "Disease Score", "setting": "[1]; 2 months postinoculation", "value": 0},
      {"measurement": "Body Wt.", "setting": "[1]; 3 months postinoculation", "value": "23.8 Grams and 23.5 Grams and 25.4 Grams"},
      {"measurement": "Spleen Wt.", "setting": "[1]; 3 months postinoculation", "value": "0.118 Grams and 0.114 Grams and 0.112 Grams"},
      {"measurement": "Disease Score", "setting": "[1]; 3 months postinoculation", "value": 0.5},
      {"measurement": "Body Wt.", "setting": "[1]; 4 months postinoculation", "value": "25.0 Grams and 21.1 Grams and 28.6 Grams"},
      {"measurement": "Spleen Wt.", "setting": "[1]; 4 months postinoculation", "value": "0.262 Grams and 0.086 Grams and 0.150 Grams"},
      {"measurement": "Disease Score", "setting": "[1]; 4 months postinoculation", "value": "2 and 0 and 1"},
      {"measurement": "Disease score of mice that died prior to termination", "setting": "[2]; Groups 4 and 7", "value": 0.5},
      {"measurement": "Survival vs LP-BM5 virus-positive control (log-rank p)", "setting": "[2]; treatment from day 1, FIG. 6", "value": 0.0308},
      {"measurement": "Virus titer, plaques per million spleen cells", "setting": "[3]; four months after inoculation, mean ± standard deviation, NAL 400 mg/kg, ASA 20 mg/kg, AZT 1 mg/mL", "value": "333±495 plaques per million spleen cells"},
      {"measurement": "Mice with detectable virus (plaques) in spleens", "setting": "[3]; four months, AZT with or without 400 mg/kg NAL", "value": "two of the mice"},
      {"measurement": "Ratio of plasma nicotinamide mean to placebo (PBS Control, Group 1)", "setting": "[4]; Month 1", "value": 1.59},
      {"measurement": "Mean Plasma Nicotinamide Level", "setting": "[4]; Month 1", "value": "5.1 ± 0.6", "unit": "nmol/mL"},
      {"measurement": "Ratio of plasma nicotinamide mean to placebo (PBS Control, Group 1)", "setting": "[4]; Month 2", "value": 1.54},
      {"measurement": "Mean Plasma Nicotinamide Level", "setting": "[4]; Month 2", "value": "6.0 ± 0.4", "unit": "nmol/mL"},
      {"measurement": "Ratio of plasma nicotinamide mean to placebo (PBS Control, Group 1)", "setting": "[4]; Month 3", "value": 2.26},
      {"measurement": "Mean Plasma Nicotinamide Level", "setting": "[4]; Month 3", "value": "5.2 ± 3.0", "unit": "nmol/mL"},
      {"measurement": "Mean Plasma Nicotinamide Level", "setting": "[4]; Month 4", "value": "5.8 ± 0.4", "unit": "nmol/mL"}
    ]}
  ]
}
